Here are results for 43 compounds from patent US8735391B2, “Synthesis of functionalized octahydro-isoquinolin-1-one-8-carboxamides, octahydro-isoquinolin-1-one-8-carboxylic esters and analogs, and therapeutic methods” (University of Kansas, priority 2008, dated 2014).

The structures appear in SMILES notation. pKi: −log10 of the molar value. Like-named read-outs stand apart in the source and are kept apart here.

The assay addresses KOR (Homo sapiens, UniProt P41145). Description: Opioid secondary binding, KOR (Tables 4, 5, 8, 9).
Where [1] appears, read: Opioid secondary binding activity for Formula 10 analogs, read-out: KOR, Ki.

Broadly, the pKi is the negative decadic logarithm of the Ki, by convention in mol/L.

Sequence of KOR (P41145 whole entry): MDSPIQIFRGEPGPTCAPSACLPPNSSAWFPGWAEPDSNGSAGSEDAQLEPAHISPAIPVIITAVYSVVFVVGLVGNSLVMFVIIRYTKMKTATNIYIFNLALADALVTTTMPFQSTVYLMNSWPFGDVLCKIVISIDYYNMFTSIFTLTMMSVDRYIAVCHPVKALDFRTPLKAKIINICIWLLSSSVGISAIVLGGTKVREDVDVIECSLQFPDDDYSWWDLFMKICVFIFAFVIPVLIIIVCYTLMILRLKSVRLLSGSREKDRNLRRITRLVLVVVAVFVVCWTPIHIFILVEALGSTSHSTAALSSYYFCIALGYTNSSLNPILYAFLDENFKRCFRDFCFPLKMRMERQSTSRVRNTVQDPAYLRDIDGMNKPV

With `O=C(Nc1ccccc1)[C@@H]1CC=C[C@@H]2CCN(CC3CCCCC3)C(=O)[C@@H]21` (racemic) [compound 11887], the pKi under setting [1] is 6.73. With `O=C(Nc1ccc(Cl)c(C(F)(F)F)c1)C1CCCC2CCN(C3CCCCC3)C(=O)C21` (racemic) [compound 11479], the pKi under setting [1] is 6.10. With `CC(C)N1CCC2C=CCC(C(=O)Nc3ccc(F)c(F)c3)C2C1=O` (racemic) [compound 10847], under setting [1], the pKi is 5.38. For `O=C(O)C(Cc1ccccc1)NC(=O)C1CC=CC2CCN(Cc3ccccc3)C(=O)C21` (mixture of isomers) [compound 11902], under setting [1], the pKi is 5.47. For `O=C1NCC[C@H]2C=CC[C@@H](C(=O)Nc3ccc(Cl)c(C(F)(F)F)c3)[C@@H]12` (racemic) [compound 11896], the pKi under setting [1] is 6.14. Consider `Cc1cc(NC(=O)[C@@H]2CC=C[C@@H]3CCN(C4CCCCC4)C(=O)[C@@H]32)ccc1Cl` (racemic) [compound 11860], for which the pKi under setting [1] is 6.15. Turning to `O=C(Nc1ccc(Cl)cc1Cl)[C@@H]1CC=C[C@@H]2CCN(c3ccccc3)C(=O)[C@@H]21` (racemic) [compound 10826], under setting [1], the pKi is 6.54. Turning to `O=C(Nc1c(F)c(F)c(F)c(F)c1F)[C@@H]1CC=C[C@@H]2CCN(Cc3ccccc3)C(=O)[C@@H]21` (racemic) [compound 14309], the pKi under setting [1] was 5.53.

As to `CC(C)N1CCC2C=CCC(C(=O)Nc3cccc(C(F)(F)F)c3)C2C1=O` (racemic) [compound 10846], the negative-log Ki (pKi) under setting [1] was 6.21.

For `O=C(Nc1ccc(F)c(F)c1)[C@@H]1CC=C[C@@H]2CCN(c3ccccc3)C(=O)[C@@H]21` (racemic) [compound 10823], under setting [1], the pKi was 6.43. As to `CC(NC(=O)C1CC=CC2CCN(Cc3ccccc3)C(=O)C21)c1ccccc1` (mixture of isomers) [compound 11854], the negative logarithm of the Ki (pKi) under setting [1] was 6.15. For `O=C(NC1CCCCC1)[C@@H]1CC=C[C@@H]2CCN(Cc3ccccc3)C(=O)[C@@H]21` [compound 11791], the pKi is 5.89. `CC(C)N1CCC2C=CCC(C(=O)Nc3cccc(Cl)c3)C2C1=O` (racemic) [compound 10844]: the pKi under setting [1] is 5.67. For the compound `O=C(Nc1ccc(Cl)c(C(F)(F)F)c1)[C@@H]1CC=C[C@@H]2CCN(CC3CCCCC3)C(=O)[C@@H]21` (racemic) [compound 11890], under setting [1], the pKi is 6.08.

Take `CC(C)N1CCC2C=CCC(C(=O)Nc3ccc(Cl)c(C(F)(F)F)c3)C2C1=O` (racemic) [compound 10849]: the pKi under setting [1] is 6.58. For the compound `CC(C)N1CCC2C=CCC(C(=O)Nc3ccc(Cl)cc3Cl)C2C1=O` (racemic) [compound 10850], the pKi under setting [1] is 5.62. For `O=C(OCc1ccccc1)C(Cc1ccccc1)NC(=O)C1CC=CC2CCN(Cc3ccccc3)C(=O)C21` (mixture of isomers) [compound 11819], under setting [1], the pKi was 5.89.

Take `O=C(Nc1ccc(Cl)cc1C(F)(F)F)[C@@H]1CC=C[C@@H]2CCN(C3CCCCC3)C(=O)[C@@H]21` (racemic) [compound 11858]: the negative logarithm of the Ki (pKi) under setting [1] is 6.06.

As to `CC(NC(=O)C1CC=CC2CCN(CCc3ccccc3)C(=O)C21)c1ccccc1` (mixture of isomers) [compound 11848], under setting [1], the pKi was 5.46. The same measure, in the same setting: next, `O=C(Nc1ccc([N+](=O)[O-])c(C(F)(F)F)c1)[C@@H]1CC=C[C@@H]2CCN(C3CCCCC3)C(=O)[C@@H]21` (racemic) [compound 11920]: 5.29. In the case of `O=C(NCc1ccc(Cl)c(C(F)(F)F)c1)[C@@H]1CC=C[C@@H]2CCN(C3CCCCC3)C(=O)[C@@H]21` (racemic) [compound 11856], the pKi under setting [1] was 6.27. `CC(NC(=O)C1CC=CC2CCN(C3CCCCC3)C(=O)C21)c1ccccc1` (mixture of isomers) [compound 11836]: the pKi under setting [1] is 6.22. On the same count and under the same terms, under `CCOC(=O)CCC(NC(=O)C1CC=CC2CCN(C3CCCCC3)C(=O)C21)C(=O)OCC` (mixture of isomers) [compound 11821] stands 5.33. For the compound `O=C(Nc1ccc(Cl)c(C(F)(F)F)c1)C1CC=CC2CCN(Cc3ccc(Cl)cc3)C(=O)C21` (racemic) [compound 10841], the pKi under setting [1] was 6.33. With `COC(=O)C(C)NC(=O)C1CC=CC2CCN(Cc3ccccc3)C(=O)C21` (mixture of isomers) [compound 11818], the negative logarithm of the Ki (pKi) under setting [1] was 5.21.

On to `COc1ccc(NC(=O)[C@@H]2CC=C[C@@H]3CCN(Cc4ccc(Cl)cc4)C(=O)[C@@H]32)cc1` (racemic) [compound 10835], for which, under setting [1], the pKi was 5.29. Take `O=C(Nc1c(F)cccc1F)[C@@H]1CC=C[C@@H]2CCN(c3ccccc3)C(=O)[C@@H]21` (racemic) [compound 10824]: the pKi under setting [1] is 5.30. `O=C(Nc1cccc(C(F)(F)F)c1)C1CC=CC2CCN(Cc3ccc(Cl)cc3)C(=O)C21` (racemic) [compound 10838]: under setting [1], the negative logarithm of the Ki (pKi) is 5.82. With `O=C(OCc1ccccc1)C1CCCN1C(=O)C1CC=CC2CCN(Cc3ccc(Cl)cc3)C(=O)C21` (mixture of isomers) [compound 11808], the pKi under setting [1] is 5.64. The same measure, in the same setting: next, `O=C(Nc1cccc(Cl)c1)[C@@H]1CC=C[C@@H]2CCN(c3ccccc3)C(=O)[C@@H]21` (racemic) [compound 10821]: 6.38. As to `COC(=O)C(CCSC)NC(=O)C1CC=CC2CCN(C3CCCCC3)C(=O)C21` (mixture of isomers) [compound 11822], the negative logarithm of the Ki (pKi) under setting [1] was 5.35. Turning to `O=C(NCc1ccccc1)[C@@H]1CC=C[C@@H]2CCN(C3CCCCC3)C(=O)[C@@H]21` (racemic) [compound 11918], the pKi under setting [1] is 6.45. On to `O=C(OCc1ccccc1)C(Cc1ccccc1)NC(=O)C1CC=CC2CCN(C3CCCCC3)C(=O)C21` (mixture of isomers) [compound 11825], for which the pKi under setting [1] is 5.96.

`O=C(Nc1ccc(Cl)cc1Cl)[C@@H]1CC=C[C@@H]2CCN(CCc3ccccc3)C(=O)[C@@H]21` (racemic) [compound 10834]: the negative logarithm of the Ki (pKi) under setting [1] is 5.19. With `COc1cccc(F)c1CN1CC[C@H]2C=CC[C@@H](C(=O)Nc3ccc(C)c(F)c3F)[C@H]2C1=O` (racemic) [compound 13485], the negative logarithm of the Ki (pKi) under setting [1] is 5.29. On to `O=C(Nc1ccc(C(F)(F)F)cc1Cl)[C@@H]1CC=C[C@@H]2CCN(CCc3ccccc3)C(=O)[C@@H]21` (racemic) [compound 11877], for which, under setting [1], the negative-log Ki (pKi) is 5.48. As for `O=C(Nc1ccc(C(F)(F)F)cc1)C1CC=CC2CCN(Cc3ccc(Cl)cc3)C(=O)C21` (racemic) [compound 10837], the negative-log Ki (pKi) under setting [1] is 5.60.

Consider `O=C(Nc1ccc(F)c(F)c1)C1CC=CC2CCN(Cc3ccc(Cl)cc3)C(=O)C21` (racemic) [compound 10839], for which the negative-log Ki (pKi) under setting [1] was 6.19.

For `O=C(OCc1ccccc1)C(Cc1ccccc1)NC(=O)C1CC=CC2CCN(CCc3ccccc3)C(=O)C21` (mixture of isomers) [compound 11831], the negative-log Ki (pKi) under setting [1] is 5.82.

Regarding `COC(=O)C(CCSC)NC(=O)C1CC=CC2CCN(Cc3ccccc3)C(=O)C21` (mixture of isomers) [compound 11816], the pKi under setting [1] is 5.58. On to `O=C(Nc1cccc(Cl)c1)[C@@H]1CC=C[C@@H]2CCN(Cc3ccc(Cl)cc3)C(=O)[C@@H]21` (racemic) [compound 10836], for which, under setting [1], the negative-log Ki (pKi) was 6.65.

With `O=C(NC1CCCCC1)[C@@H]1CC=C[C@@H]2CCN(CC3CCCCC3)C(=O)[C@@H]21` (racemic) [compound 11886], under setting [1], the negative-log Ki (pKi) was 6.75. As for `O=C(Nc1ccc(F)cc1)[C@@H]1CC=C[C@@H]2CCN(Cc3ccccc3)C(=O)[C@@H]21` (racemic) [compound 11909], under setting [1], the pKi is 6.56.
